Laboratory results reported in PubChem BioAssay AID248 (DTP/NCI, 2004).
Where “and” joins values, the source holds several entries; their conditions need not be identical. Equal entries are not always repeated. Toxic doses and inconclusive results are not listed. Cut-off read from the data, not from the text of the source: active = T/C of 150% or more; inactive = T/C below 125%.

System: L1210 leukemia ip in BDF1 mice, survival T/C
Test: NCI In Vivo Anticancer Drug Screen. Data for tumor model L1210 Leukemia (intraperitoneal) in B6D2F1 (BDF1) mice
Conditions: endpoint: mean survival time, higher = longer survival
Procedure, shortened: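 Mice bearing the transplanted tumor received compound or vehicle. Survival of the treated group was divided by that of the vehicle-treated control group to give the ratio.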

[1] = dose: 100.0 mg/kg/injection, schedule: Q01DX009 (ip), vehicle: saline with Tween-80
[2] = dose: 100.0 mg/kg/injection, schedule: Q04DX003 (ip), vehicle: saline with Tween-80
[3] = dose: 200.0 mg/kg/injection, schedule: Q04DX003 (ip), vehicle: saline with Tween-80
[4] = dose: 400.0 mg/kg/injection, schedule: Q04DX003 (ip), vehicle: saline with Tween-80
[5] = dose: 50.0 mg/kg/injection, schedule: Q01DX009 (ip), vehicle: saline with Tween-80
[6] = dose: 100.0 mg/kg/injection, schedule: Q01DX001 (ip), vehicle: saline with Tween-80
[7] = dose: 100.0 mg/kg/injection, schedule: Q04DX003 (ip), vehicle: saline
[8] = dose: 200.0 mg/kg/injection, schedule: Q04DX003 (ip), vehicle: saline
[9] = dose: 400.0 mg/kg/injection, schedule: Q04DX003 (ip), vehicle: saline

Measured: T/C

CC(=O)OCC(=O)[C@@]1(O)CC[C@H]2[C@@H]3CCC4=CC(=O)CC[C@]4(C)[C@H]3[C@@H](O)C[C@@]21C
inactive: dose: 1.13 mg/kg/injection, schedule: Q01DX Z (sc), vehicle: steriod suspending solution 102 % of control | dose: 2.25 mg/kg/injection, schedule: Q01DX Z (sc), vehicle: steriod suspending solution 107 % of control | dose: 4.5 mg/kg/injection, schedule: Q01DX Z (sc), vehicle: steriod suspending solution 102 % of control | dose: 9.0 mg/kg/injection, schedule: Q01DX Z (sc), vehicle: steriod suspending solution 101 % of control | dose: 25.0 mg/kg/injection, schedule: Q01DX Z (sc), vehicle: steriod suspending solution 87 % of control | dose: 50.0 mg/kg/injection, schedule: Q01DX Z (sc), vehicle: steriod suspending solution 102 % of control | [1] 105 % of control | dose: 100.0 mg/kg/injection, schedule: Q01DX Z (sc), vehicle: steriod suspending solution 106 % of control | [2] 104 % of control | dose: 200.0 mg/kg/injection, schedule: Q01DX009 (ip), vehicle: saline with Tween-80 104 % of control | dose: 200.0 mg/kg/injection, schedule: Q01DX009 (sc), vehicle: other 104 % of control | dose: 200.0 mg/kg/injection, schedule: Q01DX Z (sc), vehicle: steriod suspending solution 110 % of control | [3] 99 % of control | dose: 400.0 mg/kg/injection, schedule: Q01DX001 (sc), vehicle: steriod suspending solution 92 % of control | dose: 400.0 mg/kg/injection, schedule: Q01DX009 (ip), vehicle: saline with Tween-80 98 % of control | dose: 400.0 mg/kg/injection, schedule: Q01DX009 (sc), vehicle: other 102 % of control | [4] 100 % of control | dose: 600.0 mg/kg/injection, schedule: Q01DX009 (sc), vehicle: other 96 % of control | dose: 800.0 mg/kg/injection, schedule: Q01DX001 (sc), vehicle: steriod suspending solution 97 % of control | dose: 800.0 mg/kg/injection, schedule: Q01DX009 (sc), vehicle: other 101 % of control | dose: 1200.0 mg/kg/injection, schedule: Q01DX001 (sc), vehicle: steriod suspending solution 101 % of control | dose: 1600.0 mg/kg/injection, schedule: Q01DX001 (sc), vehicle: steriod suspending solution 100 % of control

Cn1c(=O)c2[nH]c(C3CC3)nc2n(C)c1=O
inactive: dose: 50.0 mg/kg/injection, schedule: Q01DX001 (ip), vehicle: saline 113 % of control | dose: 100.0 mg/kg/injection, schedule: Q01DX001 (ip), vehicle: saline 101 % of control | dose: 200.0 mg/kg/injection, schedule: Q01DX001 (ip), vehicle: saline 98 % of control

N/C(=N\O)c1ccc2ccc3cccnc3c2n1
inactive: [2] 102 % of control | [3] 87 % of control

S=C(Nc1ccccc1)Nc1ccccc1Cl
inactive: dose: 100.0 mg/kg/injection, schedule: Q04DX002 (ip), vehicle: Klucel (hydroxypropylcellulose) (HPC) 100 % of control | dose: 200.0 mg/kg/injection, schedule: Q04DX002 (ip), vehicle: Klucel (hydroxypropylcellulose) (HPC) 100 % of control | dose: 400.0 mg/kg/injection, schedule: Q04DX002 (ip), vehicle: Klucel (hydroxypropylcellulose) (HPC) 95 % of control

CC1(C#N)CCC(CCc2ccccc2)C(=O)C1 (stereo not given)
inactive: dose: 75.0 mg/kg/injection, schedule: Q01DX001 (ip), vehicle: saline 109 % of control | dose: 75.0 mg/kg/injection, schedule: Q01DX009 (ip), vehicle: saline 99 % of control | dose: 150.0 mg/kg/injection, schedule: Q01DX001 (ip), vehicle: saline 95 % of control | dose: 150.0 mg/kg/injection, schedule: Q01DX009 (ip), vehicle: saline 94 % of control | dose: 300.0 mg/kg/injection, schedule: Q01DX001 (ip), vehicle: saline 92 % of control | dose: 300.0 mg/kg/injection, schedule: Q01DX009 (ip), vehicle: saline 96 % of control

Cc1ccccc1C(=O)C(C#N)c1ccccc1 (stereo not given)
inactive: dose: 25.0 mg/kg/injection, schedule: Q01DX009 (ip), vehicle: saline with Tween-80 103 % of control and 92 % of control | dose: 25.0 mg/kg/injection, schedule: Q04DX003 (ip), vehicle: saline with Tween-80 98 % of control | dose: 50.0 mg/kg/injection, schedule: Q01DX001 (ip), vehicle: saline with Tween-80 95 % of control | [5] 96 % of control and 103 % of control | dose: 50.0 mg/kg/injection, schedule: Q04DX002 (ip), vehicle: saline with Tween-80 97 % of control | dose: 50.0 mg/kg/injection, schedule: Q04DX003 (ip), vehicle: saline with Tween-80 102 % of control | [6] 90 % of control | [1] 113 % of control and 118 % of control | dose: 100.0 mg/kg/injection, schedule: Q04DX002 (ip), vehicle: saline with Tween-80 93 % of control and 111 % of control and 88 % of control | dose: 200.0 mg/kg/injection, schedule: Q04DX002 (ip), vehicle: saline with Tween-80 90 % of control

O=C(OCCN1C(=O)c2cccc3c(Br)ccc(c23)C1=O)OCc1ccccc1
inactive: dose: 100.0 mg/kg/injection, schedule: Q04DX002 (ip), vehicle: alcohol 103 % of control | dose: 200.0 mg/kg/injection, schedule: Q04DX002 (ip), vehicle: alcohol 100 % of control | dose: 400.0 mg/kg/injection, schedule: Q04DX002 (ip), vehicle: alcohol 100 % of control

CCN(CC)CCCC(C)Nc1c2ccc(Cl)cc2nc2ccc(OC)cc12 (stereo not given)
inactive: dose: 7.5 mg/kg/injection, schedule: Q01DX Z (ip), vehicle: saline 93 % of control | dose: 15.0 mg/kg/injection, schedule: Q01DX Z (ip), vehicle: saline 95 % of control | dose: 25.0 mg/kg/injection, schedule: Q01DX015 (ip), vehicle: carboxymethylcellulose (CMC) 102 % of control | dose: 30.0 mg/kg/injection, schedule: Q01DX Z (ip), vehicle: saline 96 % of control | dose: 50.0 mg/kg/injection, schedule: Q01DX015 (ip), vehicle: carboxymethylcellulose (CMC) 102 % of control | dose: 50.0 mg/kg/injection, schedule: Q01DX Z (ip), vehicle: water 104 % of control | dose: 100.0 mg/kg/injection, schedule: Q01DX001 (ip), vehicle: carboxymethylcellulose (CMC) 96 % of control | dose: 100.0 mg/kg/injection, schedule: Q01DX015 (ip), vehicle: carboxymethylcellulose (CMC) 102 % of control | dose: 200.0 mg/kg/injection, schedule: Q01DX001 (ip), vehicle: carboxymethylcellulose (CMC) 116 % of control

CCCCCCCC/C=C\CCCCCCCCN1CC(C(=O)[O][Pb]([CH2]C)([CH2]C)[CH2]C)CC1=O (stereo not given)
inactive: dose: 1.5 mg/kg/injection, schedule: Q01DX009 (ip), vehicle: saline with Tween-80 100 % of control | dose: 3.0 mg/kg/injection, schedule: Q01DX009 (ip), vehicle: saline with Tween-80 101 % of control | dose: 6.0 mg/kg/injection, schedule: Q01DX009 (ip), vehicle: saline with Tween-80 100 % of control | dose: 6.25 mg/kg/injection, schedule: Q01DX009 (ip), vehicle: saline with Tween-80 94 % of control | dose: 12.5 mg/kg/injection, schedule: Q04DX002 (ip), vehicle: saline with Tween-80 108 % of control | dose: 25.0 mg/kg/injection, schedule: Q04DX002 (ip), vehicle: saline with Tween-80 105 % of control

CC(C)(C)c1ccc(C(=O)C2CC2)cc1
inactive: [5] 90 % of control | [1] 92 % of control

COC(=O)c1ccccc1OC(=O)c1ccccc1
inactive: [7] 105 % of control | [8] 97 % of control | [9] 105 % of control

N#Cc1c(NN)n(C2OC(CO)C(O)C2O)c2ncnc(N)c12 (stereo not given)
inactive: dose: 25.0 mg/kg/injection, schedule: Q01DX005 (ip), vehicle: saline 107 % of control | dose: 50.0 mg/kg/injection, schedule: Q01DX005 (ip), vehicle: saline 90 % of control | dose: 100.0 mg/kg/injection, schedule: Q01DX005 (ip), vehicle: saline 105 % of control | dose: 200.0 mg/kg/injection, schedule: Q01DX005 (ip), vehicle: saline 96 % of control

CCCCCCCCCCCCCCCCC(CCCCCCCCCCCCCCCC)C1CCCCC1
inactive: [6] 94 % of control | dose: 200.0 mg/kg/injection, schedule: Q01DX001 (ip), vehicle: saline with Tween-80 94 % of control | dose: 400.0 mg/kg/injection, schedule: Q01DX001 (ip), vehicle: saline with Tween-80 90 % of control

CC1(C)CC2(OC2c2cccc(Cl)c2)C(=O)c2ccccc21 (stereo not given)
inactive: [2] 89 % of control | [3] 94 % of control | [4] 89 % of control

O=C1CCSCCN1
inactive: dose: 100.0 mg/kg/injection, schedule: Q01DX009 (ip), vehicle: saline 98 % of control | [7] 97 % of control | dose: 200.0 mg/kg/injection, schedule: Q01DX009 (ip), vehicle: saline 103 % of control | [8] 97 % of control | dose: 400.0 mg/kg/injection, schedule: Q01DX009 (ip), vehicle: saline 101 % of control | [9] 95 % of control
